Earlier results on 1 compound are cited in patent US20080096857A1, “Photodynamic Therapy For The Treatment Of Hyperactive Sebaceous Gland Disorders Using Topically Applied Hydrophobic Green Porphyrins” (QLT Inc., priority 2004, published 2008).

This series relates to acne vulgaris. Particulars: topical ALA-PDT of acne vulgaris; J. Invest Dermatol 115:183-192, 2000.

For `NCC(=O)CCC(=O)O` [ALA, 5-aminolevulinic acid], the “adverse events during and after the treatment” value is “serious adverse events that occurred during and after the treatment including erythema, edema, and sensations of pain, burning and itching”.
